Here are results for 26 molecules from patent EP2970215B1, “PYRROLIDINE DERIVATIVES, PHARMACEUTICAL COMPOSITIONS CONTAINING THEM, AND THEIR USE IN THERAPY” (AbbVie Deutschland GmbH & Co. KG, priority 2013, dated 2014).

Where only a bound is given, the exact number is not on record here.

For orientation: Ki means a dissociation constant, usually derived from enzyme kinetics or from competition with a known ligand.

The target in the assay is T1, human GlyT1c transporter (Homo sapiens, UniProt P48067).
T1 construct: expressed in transfected cells; host or cells: CHO cells (recombinant; line hGlyT1c_5_CHO is named for the uptake assay)
T1 sequence (P48067 1-706): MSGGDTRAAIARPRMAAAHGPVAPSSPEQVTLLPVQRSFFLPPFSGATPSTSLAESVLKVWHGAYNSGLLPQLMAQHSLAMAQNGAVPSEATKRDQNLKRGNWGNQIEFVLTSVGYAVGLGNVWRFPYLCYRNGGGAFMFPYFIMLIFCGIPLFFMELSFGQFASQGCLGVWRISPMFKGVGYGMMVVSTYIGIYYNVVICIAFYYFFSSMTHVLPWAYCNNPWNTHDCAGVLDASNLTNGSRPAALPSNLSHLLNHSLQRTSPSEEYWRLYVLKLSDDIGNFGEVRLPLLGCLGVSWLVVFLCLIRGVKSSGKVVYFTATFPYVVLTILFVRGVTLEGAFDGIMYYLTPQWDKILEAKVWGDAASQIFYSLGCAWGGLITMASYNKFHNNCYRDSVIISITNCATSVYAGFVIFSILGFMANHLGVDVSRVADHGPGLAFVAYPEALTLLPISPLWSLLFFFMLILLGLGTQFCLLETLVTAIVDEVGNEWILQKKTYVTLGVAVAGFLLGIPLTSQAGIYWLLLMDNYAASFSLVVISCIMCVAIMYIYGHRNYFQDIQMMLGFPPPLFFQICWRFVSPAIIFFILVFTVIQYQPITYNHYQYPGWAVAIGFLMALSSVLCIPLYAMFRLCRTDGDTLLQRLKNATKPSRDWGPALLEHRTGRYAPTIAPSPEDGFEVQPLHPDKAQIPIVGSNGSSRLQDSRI
Kind of assay: Radioligand binding assay using recombinant CHO cell membranes expressing human GlyT1. An excerpt:
2. Radioligand binding assays using recombinant CHO cell membranes expressing human GlyT1: […]

[1] abbreviates: radioligand binding to human GlyT1c transporter-expressing membranes.

With `Cn1cnc(S(=O)(=O)N2C[C@@H](Nc3cc(F)cc(Cl)c3)[C@H](c3ccccc3)C2)c1` (relative stereo) [Example 225, trans-N-(3-chloro-5-fluorophenyl)-1-[(1-methyl-1H-imidazol-4-yl)sulfonyl]-4-phenylpyrrolidin-3-amine], the Ki under setting [1] was at most 10000 nM.
As to `CC(C)c1cc(N[C@H]2CN(S(=O)(=O)c3cn(C)cn3)C[C@@H]2c2ccc(F)cc2)ccc1Cl` [Example 675, (3R,4S)-N-[4-chloro-3-(propan-2-yl)phenyl]-4-(4-fluorophenyl)-1-[(1-methyl-1H-imidazol-4-yl)sulfonyl]pyrrolidin-3-amine], the Ki under setting [1] was at most 1000 nM.
As for `Cn1cnc(S(=O)(=O)N2C[C@H](Nc3nccc(C(F)(F)F)c3F)[C@@H](c3ccc(F)cc3)C2)c1` [Example 796, 3-fluoro-N-{(3R,4S)-4-(4-fluorophenyl)-1-[(1-methyl-1H-imidazol-4-yl)sulfonyl]pyrrolidin-3-yl}-4-(trifluoromethyl)pyridin-2-amine], under setting [1], the Ki is at most 100 nM.
On the same count and under the same terms, with `Cc1oc2ccccc2c1CN[C@H]1CN(S(=O)(=O)c2cn(C)cn2)C[C@@H]1c1ccccc1` [Example 443, (3R,4S)-N-[(2-methyl-1-benzofuran-3-yl)methyl]-1-[(1-methyl-1H-imidazol-4-yl)sulfonyl]-4-phenylpyrrolidin-3-amine] the figure was at most 1000 nM.
On the same count and under the same terms, with `Cc1cnc(CN[C@H]2CN(S(=O)(=O)c3cn(C)cn3)C[C@@H]2c2ccccc2)s1` [Example 431, (3R,4S)-1-[(1-methyl-1H-imidazol-4-yl)sulfonyl]-N-[(5-methyl-1,3-thiazol-2-yl)methyl]-4-phenylpyrrolidin-3-amine] the figure was at most 10000 nM; with `Cn1cnc(S(=O)(=O)N2C[C@@H](NC(=O)c3ccccc3F)[C@H](c3ccccc3)C2)c1` (relative stereo) [Example 17, 2-fluoro-N-{trans-1-[(1-methyl-1H-imidazol-4-yl)sulfonyl]-4-phenylpyrrolidin-3-yl}benzamide], at most 10000 nM.
Still for that read-out and setting: with `Cn1cnc(S(=O)(=O)N2C[C@@H](NCc3ccc(Cl)cc3Cl)[C@H](c3ccc(F)cc3)C2)c1` (relative stereo) [Example 279, trans-N-(2,4-dichlorobenzyl)-4-(4-fluorophenyl)-1-[(1-methyl-1H-imidazol-4-yl)sulfonyl]pyrrolidin-3-amine] the figure was at most 10000 nM.
For `Cn1cnc(S(=O)(=O)N2C[C@H](Nc3ccc4c(c3)C(C)(C)CCO4)[C@@H](c3ccc(F)cc3)C2)c1` [Example 672, (3R,4S)-N-(4,4-dimethyl-3,4-dihydro-2H-chromen-6-yl)-4-(4-fluorophenyl)-1-[(1-methyl-1H-imidazol-4-yl)sulfonyl]pyrrolidin-3-amine], under setting [1], the Ki is at most 1000 nM.
Still for that read-out and setting: with `CCCCCCNC(=O)[C@@H]1CN(S(=O)(=O)c2cn(C)cn2)C[C@H]1c1ccc(F)cc1` (relative stereo) [Example 627, Trans-4-(4-fluorophenyl)-N-hexyl-1-[(1-methyl-1H-imidazol-4-yl)sulfonyl]pyrrolidine-3-carboxamide] the figure was at most 1000 nM; with `CC(C)OCCCNC[C@@H]1CN(S(=O)(=O)c2cn(C)cn2)C[C@H]1c1ccc(F)cc1` (relative stereo) [Example 591, N-({trans-4-(4-fluorophenyl)-1-[(1-methyl-1H-imidazol-4-yl)sulfonyl]pyrrolidin-3-yl}methyl)-3-(propan-2-yloxy)propan-1-amine], at most 10000 nM; with `Cc1ccc(N[C@H]2CN(S(=O)(=O)c3cn(C)cn3)C[C@@H]2c2ccc(F)cc2)cc1C(F)(F)F` [Example 638, (3R,4S)-4-(4-fluorophenyl)-1-[(1-methyl-1H-imidazol-4-yl)sulfonyl]-N-[4-methyl-3-(trifluoromethyl)phenyl]pyrrolidin-3-amine], at most 1000 nM.
Same read-out and setting: with `Cn1cnc(S(=O)(=O)N2C[C@H](Nc3ccc4c(c3)CCC4)[C@@H](c3ccccc3)C2)c1` [Example 655, (3R,4S)-N-(2,3-dihydro-1H-inden-5-yl)-1-[(1-methyl-1H-imidazol-4-yl)sulfonyl]-4-phenylpyrrolidin-3-amine] the figure was at most 1000 nM; with `Cn1cnc(S(=O)(=O)N2C[C@@H](Nc3ccc(C(F)(F)F)cc3)[C@H](c3ccc(F)cc3)C2)c1` (relative stereo) [Example 89, trans-4-(4-fluorophenyl)-1-[(1-methyl-1H-imidazol-4-yl)sulfonyl]-N-[4-(trifluoromethyl)phenyl]pyrrolidin-3-amine], at most 100 nM; with `Cn1cnc(S(=O)(=O)N2C[C@@H](COc3ccc(F)cc3)[C@H](c3ccc(F)cc3)C2)c1` (relative stereo) [Example 348, 4-{[Trans-3-[(4-fluorophenoxy)methyl]-4-(4-fluorophenyl)pyrrolidin-1-yl]sulfonyl}-1-methyl-1H-imidazole], at most 100 nM.
Consider `Cn1cnc(S(=O)(=O)N2C[C@@H](NC(=O)c3cccc(C(F)(F)F)c3Cl)[C@H](c3ccc(F)cc3)C2)c1` (relative stereo) [Example 3, 2-chloro-N-{trans-4-(4-fluorophenyl)-1-[(1-methyl-1H-imidazol-4-yl)sulfonyl]pyrrolidin-3-yl}-3-(trifluoromethyl)benzamide], for which, under setting [1], the Ki is at most 100 nM.
The same measure, in the same setting: with `COc1ccc([C@@H]2CN(S(=O)(=O)c3cn(C)cn3)C[C@H]2NC(=O)c2cccc(C(F)(F)F)c2Cl)cc1` (relative stereo) [Example 2, 2-chloro-N-{trans-4-(4-methoxyphenyl)-1-[(1-methyl-1H-imidazol-4-yl)sulfonyl]pyrrolidin-3-yl}-3-(trifluoromethyl)benzamide] the figure was at most 1000 nM; with `Cn1cnc(S(=O)(=O)N2C[C@@H](CNc3cccc(CN)c3)[C@H](c3ccc(F)cc3)C2)c1` (relative stereo) [Example 365, 3-(Aminomethyl)-N-({Trans-4-(4-fluorophenyl)-1-[(1-methyl-1H-imidazol-4-yl)sulfonyl]pyrrolidin-3-yl}methyl)aniline], at most 10000 nM.
As to `Cn1cnc(S(=O)(=O)N2C[C@@H](Nc3ccc(C(F)(F)F)cc3)[C@H](c3ccccc3)C2)c1` (relative stereo) [Example 68, trans-1-[(1-methyl-1H-imidazol-4-yl)sulfonyl]-4-phenyl-N-[4-(trifluoromethyl)phenyl]pyrrolidin-3-amine], under setting [1], the Ki is at most 1000 nM.
As for `Cn1cnc(S(=O)(=O)N2C[C@@H](C(=O)NCc3ccc(F)cc3)[C@H](c3ccc(F)cc3)C2)c1` (relative stereo) [Example 630, Trans-N-(4-fluorobenzyl)-4-(4-fluorophenyl)-1-[(1-methyl-1H-imidazol-4-yl)sulfonyl]pyrrolidine-3-carboxamide], the inhibitory constant (Ki) under setting [1] was at most 100 nM.
Same read-out and setting: with `Cn1cnc(S(=O)(=O)N2C[C@@H](Nc3ccc(F)c(OC(F)(F)F)c3)[C@H](c3ccccc3)C2)c1` (relative stereo) [Example 298, trans-N-[4-fluoro-3-(trifluoromethoxy)phenyl]-1-[(1-methyl-1H-imidazol-4-yl)sulfonyl] -4-phenylpyrrolidin-3-amine] the figure was at most 10 nM.
Same read-out and setting: with `O=C(N[C@@H]1CN(S(=O)(=O)CC2CC2)C[C@H]1c1ccccc1)c1cccc(C(F)(F)F)c1Cl` (relative stereo) [Example 130, 2-chloro-N-{trans-1-[(cyclopropylmethyl)sulfonyl]-4-phenylpyrrolidin-3-yl}-3-(trifluoromethyl)benzamide] the figure was above 10000 nM.
The same measure, in the same setting: with `Cn1cnc(S(=O)(=O)N2C[C@H](NCCCCC(F)(F)F)[C@@H](c3ccc(F)cc3)C2)c1` [Example 732, (3R,4S)-4-(4-fluorophenyl)-1-[(1-methyl-1H-imidazol-4-yl)sulfonyl]-N-(5,5,5-trifluoropentyl)pyrrolidin-3-amine] the figure was at most 100 nM; with `CC(=O)CCC(=O)N[C@H]1CN(S(=O)(=O)c2cn(C)cn2)C[C@@H]1c1ccc(F)cc1` [Example 738, N-{(3R,4S)-4-(4-fluorophenyl)-1-[(1-methyl-1H-imidazol-4-yl)sulfonyl]pyrrolidin-3-yl}-4-oxopentanamide], above 10000 nM; with `Cn1cnc(S(=O)(=O)N2C[C@H](Nc3ccc(F)c(-c4cncnc4)c3)[C@@H](c3ccc(F)cc3)C2)c1` [Example 749, (3R,4S)-4-(4-fluorophenyl)-N-[4-fluoro-3-(pyrimidin-5-yl)phenyl]-1-[(1-methyl-1H-imidazol-4-yl)sulfonyl]pyrrolidin-3-amine], at most 10 nM.
Consider `Cn1cnc(S(=O)(=O)N2C[C@@H](Nc3ccc(F)c(Cl)c3)[C@H](C3CCOC3)C2)c1` (relative stereo) [Example 830, trans -N-(3-chloro-4-fluorophenyl)-1-[(1-methyl-1H-imidazol-4-yl)sulfonyl] -4-(tetrahydrofuran-3 - yl)pyrrolidin-3-amine], for which the inhibition constant (Ki) (radioligand binding, recombinant CHO cell membranes expressing human GlyT1c) is at most 10000 nM.
On to `Cn1cnc(S(=O)(=O)N2C[C@H](NC(=O)Nc3cccc(F)c3)[C@@H](c3ccc(F)cc3)C2)c1` [Example 703, 1-(3-fluorophenyl)-3-{(3R,4S)-4-(4-fluorophenyl)-1-[(1-methyl-1H-imidazol-4-yl)sulfonyl]pyrrolidin-3-yl}urea], for which, under setting [1], the Ki is at most 1000 nM.
